This is an account of results in patent US7825151B2, “Hexahydro-cyclooctyl pyrazole cannabinoid modulators” (priority 2005, dated 2010).

Each structure is given as a SMILES string. Like-named read-outs stand apart in the source and are kept apart here. Some results are limits rather than exact numbers.

In experiment [1] the target is T1, CB2 receptor (Homo sapiens, UniProt P34972).
T1 construct: expressed in transfected cells; host or cells: SK-N-MC cells, stably transfected with pcDNA3 CB-2 (human)
T1 sequence (P34972 whole entry): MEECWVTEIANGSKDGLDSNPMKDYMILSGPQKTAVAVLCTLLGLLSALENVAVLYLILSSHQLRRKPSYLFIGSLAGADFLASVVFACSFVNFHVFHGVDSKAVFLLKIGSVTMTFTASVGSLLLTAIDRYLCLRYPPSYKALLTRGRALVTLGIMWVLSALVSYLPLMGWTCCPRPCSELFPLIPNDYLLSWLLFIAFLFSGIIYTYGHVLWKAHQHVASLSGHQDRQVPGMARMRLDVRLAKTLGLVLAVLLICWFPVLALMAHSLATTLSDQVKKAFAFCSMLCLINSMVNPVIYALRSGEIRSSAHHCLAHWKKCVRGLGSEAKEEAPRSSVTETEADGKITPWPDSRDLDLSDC
The experiment can be described thus: Functional cell-based CRE β-gal assay, CB2 (adenylate cyclase activity). From the text: (§1) The CB1 and CB2 receptors are G-protein coupled receptors (GPCR), which influence cell function via the Gi-protein. These receptors modulate the activity of intracellular adenylate cyclase, which in turn produces the intracellular signal messenger cyclic-AMP (cAMP).
(§2) At baseline, or during non-ligand bound conditions, these receptors are constitutively active and tonically suppress adenylate cyclase activity. The binding of an agonist causes further receptor activation and produces additional suppression of adenylate cyclase activity. The binding of an inverse agonist inhibits the constitutive activity of the receptors and results in an increase in adenylate cyclase activity.
(§3) By monitoring intracellular adenylate cyclase activity, the ability of compounds to act as agonists or inverse agonists can be determined.
(§4) Test compounds were evaluated in SK-N-MC cells which, using standard transfection procedures, were stably transfected with human cDNA for pcDNA3-CRE β-gal and pcDNA3 CB1 receptor (human) or pcDNA3 CB2 receptor (human). By expressing CRE β-gal, the cells produced β-galactosidase in response to CRE promoter activation by cAMP. Cells expressing CRE β-gal and either the human CB1 or CB2 receptor will produce less β-galactosidase when treated with a CB1/CB2 agonist and will produce more β-galactosidase when treated with a CB1/CB2 inverse agonist.
(§5) The cells were grown in 96-well plates under standard cell culture conditions at 37° C. in a 5% CO2 atmosphere. After 3 days, the media was removed and a test compound in media (wherein the media was supplemented with 2 mM L-glutamine, […] sodium pyruvate, 0.1% low fatty acid FBS (fetal bovine serum) and antibiotics) was added to the cell. The plates were incubated for 30 minutes at 37° C. and the plate cells were then treated with forskolin over a 4-6 hour period, then washed and lysed. The β-galactosidase activity was quantitated using commercially available kit reagents (Promega Corp. Madison, Wis.) and a Vmax Plate Reader (Molecular Devices, Inc).
For cells expressing CRE β-gal and the CB2 receptor, CB2 agonists reduced β-galactosidase activity in a dose-dependent manner and CB2 inverse agonists increase β-galactosidase activity in a dose-dependent manner.
(§6) The change in β-galactosidase activity was determined by setting a vehicle treated cell's activity value at 100% and expressing the β-galactosidase activity measured in a corresponding compound treated cell as a percent of the vehicle treated cell activity.
The EC50 value for functional activity for compounds tested was calculated by linear regression and was obtained from studies in which varying compound concentrations were used.
The value of 29% for Compound 5 represents change in functional activity and was obtained from a study in which one compound concentration was used.

Experiment [2] concerns the target T2, human CB1 receptor (Homo sapiens, UniProt P21554).
T2 construct: expressed in transfected cells; host or cells: SK-N-MC cells, stably transfected with pcDNA3 CB-1 (human)
The experiment can be described thus: Functional cell-based CRE β-gal assay, CB1 (adenylate cyclase activity).
Text: as §1, §2, §3, §4, §5, §6
The EC50 value for functional activity for compounds tested was calculated by linear regression and was obtained from studies in which varying compound concentrations were used. Data provided for certain compounds is represented by percent change (%) in functional activity at a single test concentration: ^(1)10 μM and ^(2)1 μM.

The target of experiment [3] is T2, human CB1 receptor. The experiment can be described thus: Binding assay for CB1 ([3H]-CP-55,940 displacement, SK-N-MC membranes). As to conditions: for IC50: Cannabinoid CB1 Receptor Binding IC50, radioligand CP-55,940 0.2 nM, SK-N-MC membranes; for inhibition at 0.2 µM: test concentration 0.2 μM (footnote 3), read-out: CB1 receptor binding percent inhibition. On the procedure:
(§7) The human CB1 and CB2 receptors were stably expressed in SK-N-MC cells transfected with pcDNA3 CB-1 (human) or pcDNA3 CB-2 (human). The cells were grown in T-180 cell culture flasks under standard cell culture conditions at 37° C. in a 5% CO2 atmosphere. The cells were harvested by trysinization and homogenized in a homogenization buffer (10 mM Tris, 0.2 mM MgCl2, 5 mM KCl, with protease inhibitors aprotinin, leupeptin, pepstatin A and bacitracin) and centrifuged (2000 g). The supernatant was then centrifuged in 2M sucrose (31,300 g) to produce a semi-purified membrane pellet. The pellet was resuspended in homogenization and stored at −80° C.
(§8) On the day of the assay, the pellet was thawed on ice and diluted in assay buffer (50 mM Tris-HCl, 5 mM MgCl2, 2.5 mM EDTA, 0.5 mg/mL fatty acid free bovine serum albumin, pH 7.5). The diluted membrane pellet was added with buffer, either a test compound or vehicle standard and the radioligand [H]^3+-CP-55,940 (0.2 nM) to the wells of a 96-well polypropylene plate. Non-specific binding was measured in wells containing WIN 55,212 (10 uM). The plate was covered and incubated for 90 minutes at 30° C. The contents were then aspirated onto a Packard Unifilter GF/C filter bottom plate prewet with 0.5% polyethyleneimine. The wells of the polypropylene plate were rinsed and aspirated seven times with a 0.9% saline-0.5% Tween 20 solution. The Unifilter plate was dried, scintillation cocktail was added to each well and the counts representing binding were quantitated in a TopCount scintillation counter.
(§9) For compounds tested, an IC50 binding value was obtained from percent inhibition studies in which various test concentrations were used. The binding value was calculated by linear regression.
(§10) For compounds without an IC50 binding value, the percent inhibition (%) was obtained at a test concentration of ^(1)10 μM, ^(2)1 μM, ^(3)0.2 μM, ^(4)0.003 μM, ^(5) represents an average value.

The target in experiment [4] is T1, CB2 receptor. The experiment can be described thus: Binding assay for CB2 ([3H]-CP-55,940 displacement, SK-N-MC membranes). The conditions noted are these: read-out: CB2 receptor binding percent inhibition. The protocol:
as §7, §8, §9, §10

The mark [5] stands for this setting: test concentration 0.2 μM (footnote 3).

T2 sequence (P21554 whole entry): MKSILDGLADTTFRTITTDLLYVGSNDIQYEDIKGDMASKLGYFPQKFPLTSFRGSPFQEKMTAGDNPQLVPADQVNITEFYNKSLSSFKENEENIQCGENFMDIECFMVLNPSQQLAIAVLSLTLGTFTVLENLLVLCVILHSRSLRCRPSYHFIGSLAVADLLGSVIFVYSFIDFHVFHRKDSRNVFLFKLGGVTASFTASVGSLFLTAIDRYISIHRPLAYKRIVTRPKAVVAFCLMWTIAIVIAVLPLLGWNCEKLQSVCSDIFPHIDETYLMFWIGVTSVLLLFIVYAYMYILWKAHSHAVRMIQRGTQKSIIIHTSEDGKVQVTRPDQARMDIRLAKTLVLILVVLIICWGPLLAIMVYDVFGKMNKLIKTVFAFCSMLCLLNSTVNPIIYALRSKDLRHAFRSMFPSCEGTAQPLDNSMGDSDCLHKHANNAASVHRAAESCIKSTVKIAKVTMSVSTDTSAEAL

In general, EC50 refers to the midpoint of the concentration-response curve. With `COC[C@H](NC(=O)c1n[nH]c2c1CCCCC[C@H]2Cc1cccc(Cl)c1)c1ccccc1` (relative stereo) [Cpd 26, (9S*)-(3-chloro-benzyl)-4,5,6,7,8,9-hexahydro-1H-cyclooctapyrazole-3-carboxylic acid [(1R)-2-methoxy-1-phenyl-ethyl]-amide], the EC50 at CB2 receptor [1] turned out to be 5 nM; at human CB1 receptor [2], 70 nM.

Broadly, the IC50 is the concentration that inhibits the measured activity by half. Lower therefore signals greater potency. As a reminder, the inhibition is the percentage by which the read-out fell short of the control. Turning to `C[C@@H](NC(=O)c1nn(-c2ccc(Cl)cc2Cl)c2c1CCCCC/C2=C\c1ccc(F)cc1)C1CCCCC1` [Cpd 17, (9E)-1-(2,4-dichloro-phenyl)-9-(4-fluoro-benzylidene)-4,5,6,7,8,9-hexahydro-1H-cyclooctapyrazole-3-carboxylic acid [(1R)-1-cyclohexyl-ethyl]-amide], at human CB1 receptor [3], the IC50 is 10 nM. Also, the inhibition at 0.2 µM on human CB1 receptor [3] was determined as 86%; at CB2 receptor [4], 25%. The EC50 at human CB1 receptor [2] stood at 40 nM.

On to `O=C(N[C@@H](CO)c1ccccc1)c1n[nH]c2c1CCCCCC2Cc1cccc(Cl)c1` (stereo in doubt) [Cpd 23, (9R*)-(3-chloro-benzyl)-4,5,6,7,8,9-hexahydro-1H-cyclooctapyrazole-3-carboxylic acid [(1R)-2-hydroxy-1-phenyl-ethyl]-amide], for which the EC50 at CB2 receptor [1] (SK-N-MC cells, CRE β-gal, forskolin, agonist, read-out: CB2 Receptor Functional Agonist Activity EC50) was 11 nM; at human CB1 receptor [2] (SK-N-MC cells, CRE β-gal, forskolin, agonist, read-out: CB1 Receptor Functional Agonist Activity EC50) it was 88 nM.

On to `O=C(NNc1ccc(Cl)cc1Cl)c1nn(-c2ccc(Cl)cc2Cl)c2c1CCCCC/C2=C\c1ccc(F)cc1` [Cpd 11, (9E)-1-(2,4-dichloro-phenyl)-9-(4-fluoro-benzylidene)-4,5,6,7,8,9-hexahydro-1H-cyclooctapyrazole-3-carboxylic acid N'-(2,4-dichloro-phenyl)-hydrazide], for which the figures for the inhibition at 0.2 µM at human CB1 receptor [3] and on CB2 receptor [4] (setting [5]) were 56% and 30%, respectively.

Take `COC[C@H](NC(=O)c1n[nH]c2c1CCCCC[C@@H]2Cc1cccc(Cl)c1)c1ccccc1` (relative stereo) [Cpd 27, (9R*)-(3-chloro-benzyl)-4,5,6,7,8,9-hexahydro-1H-cyclooctapyrazole-3-carboxylic acid [(1R)-2-methoxy-1-phenyl-ethyl]-amide]: the EC50 at CB2 receptor [1] was 26 nM; at human CB1 receptor [2], 43 nM.

Turning to `O=C(NN1CC2CCCC2C1)c1nn(-c2ccc(Cl)cc2Cl)c2c1CCCCC/C2=C\c1ccc(F)cc1` (stereo not shown) [Cpd 18, (9E)-1-(2,4-dichloro-phenyl)-9-(4-fluoro-benzylidene)-4,5,6,7,8,9-hexahydro-1H-cyclooctapyrazole-3-carboxylic acid (hexahydro-cyclopenta[c]pyrrol-2-yl)-amide], the IC50 on human CB1 receptor [3] was 50 nM. Also, it took 20 nM to reach a half-maximal effect at human CB1 receptor [2] (EC50).

Turning to `C[C@@H](NC(=O)c1nn(-c2ccc(Cl)cc2Cl)c2c1CCCCC/C2=C\c1ccc(F)cc1)c1ccccc1` [Cpd 12, (9E)-1-(2,4-dichloro-phenyl)-9-(4-fluoro-benzylidene)-4,5,6,7,8,9-hexahydro-1H-cyclooctapyrazole-3-carboxylic acid [(1R)-1-phenyl-ethyl]-amide], at human CB1 receptor [3], the IC50 was 8 nM and the inhibition at 0.2 µM was 89%. On human CB1 receptor [2], this compound displayed a concentration giving a half-maximal response (EC50) of 10 nM. In addition, the inhibition at 0.2 µM on CB2 receptor [4] was determined as 18%.

Take `COc1ccc([C@H](C)NS(=O)(=O)/C=C/c2n[nH]c3c2CCCCCC3Cc2cccc(Cl)c2)cc1` (stereo partly drawn) [Cpd 20, (2E)-[9-(3-chloro-benzyl)-4,5,6,7,8,9-hexahydro-1H-cyclooctapyrazol-3-yl]-ethenesulfonic acid [(1S)-1-(4-methoxy-phenyl)-ethyl]-amide]: the EC50 on CB2 receptor [1] was ≥ 5000 nM; on human CB1 receptor [2], > 5000 nM.

Take `O=C(N[C@H](CO)c1ccccc1)c1n[nH]c2c1CCCCC[C@H]2Cc1cccc(Cl)c1` (relative stereo) [Cpd 25, (9S*)-(3-chloro-benzyl)-4,5,6,7,8,9-hexahydro-1H-cyclooctapyrazole-3-carboxylic acid [(1S)-2-hydroxy-1-phenyl-ethyl]-amide]: the half-maximal effective concentration (EC50) on CB2 receptor [1] was 14 nM; at human CB1 receptor [2], > 5000 nM.

For `O=C(N[C@H](CO)c1ccccc1)c1n[nH]c2c1CCCCC[C@@H]2Cc1cccc(Cl)c1` (relative stereo) [Cpd 24, (9R*)-(3-chloro-benzyl)-4,5,6,7,8,9-hexahydro-1H-cyclooctapyrazole-3-carboxylic acid [(1S)-2-hydroxy-1-phenyl-ethyl]-amide], the results for the EC50 at CB2 receptor [1] and on human CB1 receptor [2] were 124 nM and > 5000 nM, respectively.

As for `O=C(c1nn(-c2ccc(Cl)cc2Cl)c2c1CCCCC/C2=C\c1ccc(F)cc1)N1CCCCC1` [Cpd 14, (9E)-[1-(2,4-dichloro-phenyl)-9-(4-fluoro-benzylidene)-4,5,6,7,8,9-hexahydro-1H-cyclooctapyrazol-3-yl]-piperidin-1-yl-methanone], the inhibition at 0.2 µM amounted to 50% on human CB1 receptor [3] and 28% at CB2 receptor [4] (setting [5]).

`C[C@@H](NC(=O)c1nn(-c2ccc(Cl)cc2Cl)c2c1CCCCC/C2=C\c1ccc(F)cc1)c1ccccn1` [Cpd 13, (9E)-1-(2,4-dichloro-phenyl)-9-(4-fluoro-benzylidene)-4,5,6,7,8,9-hexahydro-1H-cyclooctapyrazole-3-carboxylic acid [(1R)-1-pyridin-2-yl-ethyl]-amide] gave an IC50 at human CB1 receptor [3] of 8 nM. The inhibition at 0.2 µM at human CB1 receptor [3] turned out to be 90%; on CB2 receptor [4], 11%. Further, the EC50 at human CB1 receptor [2] is 2 nM.

Consider `CCOC(=O)C1(NC(=O)c2nn(C3CCCCC3)c3c2CCCCCC3)CC2CCC1C2` (stereo not shown) [Cpd 4, 2-[(1-cyclohexyl-4,5,6,7,8,9-hexahydro-1H-cyclooctapyrazole-3-carbonyl)-amino]-bicyclo[2.2.1]heptane-2-carboxylic acid ethyl ester], for which the IC50 at human CB1 receptor [3] came to 60 nM. Besides, at human CB1 receptor [2] (single test concentration 1 μM (footnote 2)), the “CB1 receptor percent change in functional activity” value is “^(2)−71%”. The inhibition at 0.003 µM on CB2 receptor [4] came out at 74%.

Turning to `C[C@H](NS(=O)(=O)/C=C/c1n[nH]c2c1CCCCCC2Cc1cccc(Cl)c1)c1ccccc1` (stereo partly drawn) [Cpd 21, (2E)-[9-(3-chloro-benzyl)-4,5,6,7,8,9-hexahydro-1H-cyclooctapyrazol-3-yl]-ethenesulfonic acid [(1S)-1-phenyl-ethyl]-amide], the EC50 is 347 nM on CB2 receptor [1] and > 5000 nM on human CB1 receptor [2].

For the compound `O=C(NC(CO)c1ccccc1)c1n[nH]c2c1CCCCCC2Cc1cccc(Cl)c1` [Cpd 22, (9S*)-(3-chloro-benzyl)-4,5,6,7,8,9-hexahydro-1H-cyclooctapyrazole-3-carboxylic acid [(1R)-2-hydroxy-1-phenyl-ethyl]-amide], the values for the EC50 at CB2 receptor [1] and at human CB1 receptor [2] were 3 nM and 114 nM, respectively.
